The source of these data is article PMC12486385 (Virus Evolution, 2025).

Series [1] deals with NTRs (IMP⍺1/2/3/5/7 and IMPβ1/2/3). The experiment in a line: Fluorescence polarization. It is filed as binding, human; mouse (IMP⍺2). As to conditions: FP; poor peptide solubility. (In fluorescence polarisation assays a small probe gives low polarisation when free and higher when bound to something large.)
The nature of series [2]: Peptide precipitation / solubility under assay conditions. Format: physicochemical.
In series [3] the target is human importin beta 1 (hIMPβ1) (human, UniProt Q14974 1-876). The experiment in a line: fluorescence polarisation.

No end group written: not given here.

Sequence of human importin beta 1 (hIMPβ1) (Q14974 whole entry): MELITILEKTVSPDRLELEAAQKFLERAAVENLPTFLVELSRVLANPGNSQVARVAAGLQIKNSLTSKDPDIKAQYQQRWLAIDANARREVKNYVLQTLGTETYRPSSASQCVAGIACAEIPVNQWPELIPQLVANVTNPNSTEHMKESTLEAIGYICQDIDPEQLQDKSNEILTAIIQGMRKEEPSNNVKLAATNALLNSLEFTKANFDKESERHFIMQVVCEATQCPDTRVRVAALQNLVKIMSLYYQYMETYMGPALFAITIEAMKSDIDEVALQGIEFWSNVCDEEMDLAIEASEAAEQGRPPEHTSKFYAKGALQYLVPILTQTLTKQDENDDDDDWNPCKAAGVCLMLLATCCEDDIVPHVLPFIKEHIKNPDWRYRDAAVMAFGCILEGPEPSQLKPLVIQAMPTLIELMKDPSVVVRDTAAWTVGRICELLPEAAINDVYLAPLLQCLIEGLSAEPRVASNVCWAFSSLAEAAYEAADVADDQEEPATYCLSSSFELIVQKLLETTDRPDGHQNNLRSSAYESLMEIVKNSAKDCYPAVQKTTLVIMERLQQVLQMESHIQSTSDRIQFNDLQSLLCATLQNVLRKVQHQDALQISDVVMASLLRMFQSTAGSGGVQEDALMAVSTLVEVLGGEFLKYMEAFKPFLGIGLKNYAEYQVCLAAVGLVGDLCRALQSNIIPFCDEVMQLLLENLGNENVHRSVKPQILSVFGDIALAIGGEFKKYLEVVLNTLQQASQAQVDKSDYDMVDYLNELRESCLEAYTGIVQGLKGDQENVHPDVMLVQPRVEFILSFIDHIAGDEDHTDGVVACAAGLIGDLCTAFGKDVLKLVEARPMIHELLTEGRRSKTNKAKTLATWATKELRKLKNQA

As for “27-RRWRRRPRRRRRPYRRRPYRRYGRRRKVRRR-57 [ORF1 NLSn]”, the “interaction with NTRs (in words)” value in series [1] is recorded as “no interaction could be detected”. Further, in series [2] (EMSA conditions, 10 μM FITC-peptide, TB buffer), the precipitation result was “consistently precipitated, suggesting poor solubility under assay conditions”. In series [2] (FP conditions, 10 nM FITC-peptide, SEC buffer pH 8), the “solubility (in words)” value was “poor peptide solubility”.
For the molecule YGRRRKVRRR (also: FITC-tagged, end not given here) [ORF1 NLSn_B peptide (TTDoV ORF1 residues 48-57, predicted monopartite cNLS)], the binding result in series [3] is “binds”.
